# How the values were obtained:
# [1] = system: MCF-7 neo/HER2 breast cancer tumor xenografts; experiment: In vivo mouse tumor xenograft efficacy; design: species or system mice
# Procedure: (§1) Xenografts were initiated with cancer cells. […] Volume was calculated using the formula: […]
# [2] = system: cancer cell lines; experiment: cell proliferation assays across cancer cell lines (FIGS. 1-3, 12); assay type: cell-based; conditions: EC50, cell proliferation assays
# Source text: EC50 values were established for the experiments.
# [3] = system: HCC1954.x1 breast tumor xenografts; experiment: In vivo mouse tumor xenograft efficacy; design: species or system mice; conditions: 150 mg/kg; QD x 21; PO
# Procedure: The term uL means microliter.
# as §1
# [4] = target: PI3K alpha H1047R mutant (Homo sapiens, UniProt P42336, H1047R); conditions: relative to PI3K alpha; Folkes et al (2008); cited from earlier work
# Chain of PI3K alpha H1047R mutant (P42336 whole entry H1047R): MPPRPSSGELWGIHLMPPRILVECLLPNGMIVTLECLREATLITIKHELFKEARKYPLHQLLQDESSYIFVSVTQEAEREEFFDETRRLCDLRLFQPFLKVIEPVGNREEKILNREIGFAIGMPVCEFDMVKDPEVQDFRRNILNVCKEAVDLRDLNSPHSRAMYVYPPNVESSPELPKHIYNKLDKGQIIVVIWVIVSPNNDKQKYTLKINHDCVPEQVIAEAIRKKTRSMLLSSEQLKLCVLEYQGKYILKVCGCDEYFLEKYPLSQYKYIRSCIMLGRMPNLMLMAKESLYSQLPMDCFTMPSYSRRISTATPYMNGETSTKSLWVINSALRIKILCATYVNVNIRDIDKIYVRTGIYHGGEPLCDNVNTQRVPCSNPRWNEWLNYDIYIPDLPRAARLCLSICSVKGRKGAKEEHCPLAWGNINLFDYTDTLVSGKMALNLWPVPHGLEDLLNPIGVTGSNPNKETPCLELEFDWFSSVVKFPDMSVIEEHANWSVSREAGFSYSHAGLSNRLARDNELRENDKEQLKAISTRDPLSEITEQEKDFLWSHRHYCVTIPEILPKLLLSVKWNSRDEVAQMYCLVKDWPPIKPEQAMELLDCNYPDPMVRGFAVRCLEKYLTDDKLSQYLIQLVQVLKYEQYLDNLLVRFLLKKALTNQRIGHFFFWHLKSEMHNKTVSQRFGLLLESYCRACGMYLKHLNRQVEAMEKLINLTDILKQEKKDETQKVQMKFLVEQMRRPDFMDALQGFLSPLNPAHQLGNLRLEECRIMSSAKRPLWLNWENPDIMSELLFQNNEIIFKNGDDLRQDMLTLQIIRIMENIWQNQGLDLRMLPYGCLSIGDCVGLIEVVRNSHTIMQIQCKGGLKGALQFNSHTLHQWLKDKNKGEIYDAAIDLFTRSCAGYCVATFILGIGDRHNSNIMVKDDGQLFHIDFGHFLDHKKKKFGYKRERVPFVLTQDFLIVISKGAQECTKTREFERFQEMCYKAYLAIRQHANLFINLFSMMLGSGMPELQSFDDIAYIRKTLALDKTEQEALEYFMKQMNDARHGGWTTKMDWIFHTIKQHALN
# Chain of PI3K alpha H1047R mutant (P27986 whole entry partner): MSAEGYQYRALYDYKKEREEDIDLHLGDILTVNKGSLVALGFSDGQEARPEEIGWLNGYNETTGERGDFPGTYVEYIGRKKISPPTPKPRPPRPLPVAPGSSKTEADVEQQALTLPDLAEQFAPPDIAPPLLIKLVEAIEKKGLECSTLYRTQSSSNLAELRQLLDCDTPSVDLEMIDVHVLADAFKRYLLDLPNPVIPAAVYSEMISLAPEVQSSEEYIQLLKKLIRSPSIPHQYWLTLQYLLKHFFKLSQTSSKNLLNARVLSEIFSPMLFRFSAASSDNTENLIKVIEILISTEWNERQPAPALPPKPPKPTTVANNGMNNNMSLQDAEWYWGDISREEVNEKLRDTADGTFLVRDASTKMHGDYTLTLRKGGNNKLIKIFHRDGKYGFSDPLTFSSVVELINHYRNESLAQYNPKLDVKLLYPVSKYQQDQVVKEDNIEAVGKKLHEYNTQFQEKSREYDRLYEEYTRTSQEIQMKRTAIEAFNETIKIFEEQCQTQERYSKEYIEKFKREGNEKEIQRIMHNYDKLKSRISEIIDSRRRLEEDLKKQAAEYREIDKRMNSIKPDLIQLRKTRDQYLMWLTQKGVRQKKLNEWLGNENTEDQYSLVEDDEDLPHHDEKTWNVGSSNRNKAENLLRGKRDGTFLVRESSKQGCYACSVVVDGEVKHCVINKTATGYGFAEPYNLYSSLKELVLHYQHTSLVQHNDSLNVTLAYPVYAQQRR
# [5] = target: PI3K alpha E545K mutant (Homo sapiens, UniProt P42336, E545K); conditions: relative to PI3K alpha; Folkes et al (2008); cited from earlier work
# Chain of PI3K alpha E545K mutant (P42336 whole entry E545K): as the sequence (P42336 whole entry H1047R) above, with E545K, R1047H counted along it
# Chain of PI3K alpha E545K mutant (P27986 whole entry partner): as the sequence (P27986 whole entry partner) above
# [6] = system: Endocrine-resistant MCF7-ARO cells; experiment: 4 day CellTiter-Glo assay in endocrine resistant cells; assay type: cell-based, human; conditions: FIG. 40A
# Source text: Endocrine-resistant MCF7-ARO cells were obtained by letrozole dose escalation over about 4 months.
# [7] = system: MCF7-ARO cells; experiment: modulation of PI3K pathway and ER pathway markers and apoptosis induction; assay type: cell-based, human; conditions: Twenty-four hour treatment
# Source text: Aromatase-expressing MCF7 cells convert androstenedione to estrogen in culture.
smiles,measurement,setting,value
"CC(=O)O[C@@]12CO[C@@H]1C[C@H](O)[C@@]1(C)C(=O)[C@H](O)C3=C(C)[C@@H](OC(=O)[C@H](O)[C@@H](NC(=O)OC(C)(C)C)c4ccccc4)C[C@@](O)([C@@H](OC(=O)c4ccccc4)[C@H]21)C3(C)C [Docetaxel, (2R,3S)—N-carboxy-3-phenylisoserine, N-tert-butyl ester, 13-ester with 5,20-epoxy-1,2,4,7,10,13-hexahydroxytax-11-en-9-one 4-acetate 2-benzoate, trihydrate, reference compound]",% TGI@ day 21,"[1]; QW, 7.5 mg/kg",69%
"CS(=O)(=O)N1CCN(Cc2cc3nc(-c4cccc5[nH]ncc45)nc(N4CCOCC4)c3s2)CC1 [GDC-0941, 4-(2-(1H-indazol-4-yl)-6-((4-(methylsulfonyl)piperazin-1-yl)methyl)thieno[3,2-d]pyrimidin-4-yl)morpholine, reference compound]",sensitivity of cancer cell lines with HER2 amplification versus those without HER2 amplification,[2],9 times
same,% TGI@ day 21,[3],90%
same,% TGI@ day 21,"[1]; QD, 150 mg/kg",80%
same,PI3K alpha H1047R mutant,[4],1x
same,PI3K alpha E545K mutant,[5],1x
C=C1C[C@@H]2[C@H](CC[C@]3(C)C(=O)CC[C@@H]23)[C@@]2(C)C=CC(=O)C=C12 [exemestane],resistance of endocrine-resistant cells,[6],resistant
"C[C@]12CC[C@@H]3c4ccc(O)cc4C[C@@H](CCCCCCCCC[S+]([O-])CCCC(F)(F)C(F)(F)F)[C@H]3[C@@H]1CC[C@@H]2O (some centres unmarked) [fulvestrant, (7a,1713)-7-{9-[(4,4,5,5,5-pentafluoropentyl)sulfinyl]nonyl}estra-1,3,5(10)-triene-3,17-diol]",resistance of endocrine-resistant cells,[6],resistant
"N#Cc1ccc(C(c2ccc(C#N)cc2)n2cncn2)cc1 [letrozole, 4,4′-((1H-1,2,4-triazol-1-yl)methylene)dibenzonitrile]",resistance of endocrine-resistant cells,[6],resistant
same,PI3K and ER pathway markers,[7],"increases HER2 and pAkt, but decreases pmTOR and pp 70S6K"
"CC/C(=C(\c1ccccc1)c1ccc(OCCN(C)C)cc1)c1ccccc1 [tamoxifen, (Z)-2-[4-(1,2-diphenylbut-1-enyl)phenoxy]-N,N-dimethylethanamine]",resistance of endocrine-resistant cells,[6],resistant

# From patent US9107926B2, “Mutant selectivity and combinations of a phosphoinositide 3-kinase inhibitor compound and chemotherapeutic agents for the treatment of cancer” (Genentech, Inc., priority 2012, dated 2015)
